22 compounds from patent US20210038607A1, “OXADIAZOLYLTHIOPHENE DERIVATIVES USEFUL AS HISTONE DEACETYLASE INHIBITORS” (Karus Therapeutics Limited, priority 2018, published 2021) can be followed below.

The term IC50 denotes the concentration that gives 50% inhibition.

The test addresses T1, Recombinant human HDAC6 (Homo sapiens, UniProt Q9UBN7).
T1 construct: full length, MW=159 kDa; GST (N); host or cells: Sf9 insect cells (baculovirus)
T1 sequence (Q9UBN7 1-1215): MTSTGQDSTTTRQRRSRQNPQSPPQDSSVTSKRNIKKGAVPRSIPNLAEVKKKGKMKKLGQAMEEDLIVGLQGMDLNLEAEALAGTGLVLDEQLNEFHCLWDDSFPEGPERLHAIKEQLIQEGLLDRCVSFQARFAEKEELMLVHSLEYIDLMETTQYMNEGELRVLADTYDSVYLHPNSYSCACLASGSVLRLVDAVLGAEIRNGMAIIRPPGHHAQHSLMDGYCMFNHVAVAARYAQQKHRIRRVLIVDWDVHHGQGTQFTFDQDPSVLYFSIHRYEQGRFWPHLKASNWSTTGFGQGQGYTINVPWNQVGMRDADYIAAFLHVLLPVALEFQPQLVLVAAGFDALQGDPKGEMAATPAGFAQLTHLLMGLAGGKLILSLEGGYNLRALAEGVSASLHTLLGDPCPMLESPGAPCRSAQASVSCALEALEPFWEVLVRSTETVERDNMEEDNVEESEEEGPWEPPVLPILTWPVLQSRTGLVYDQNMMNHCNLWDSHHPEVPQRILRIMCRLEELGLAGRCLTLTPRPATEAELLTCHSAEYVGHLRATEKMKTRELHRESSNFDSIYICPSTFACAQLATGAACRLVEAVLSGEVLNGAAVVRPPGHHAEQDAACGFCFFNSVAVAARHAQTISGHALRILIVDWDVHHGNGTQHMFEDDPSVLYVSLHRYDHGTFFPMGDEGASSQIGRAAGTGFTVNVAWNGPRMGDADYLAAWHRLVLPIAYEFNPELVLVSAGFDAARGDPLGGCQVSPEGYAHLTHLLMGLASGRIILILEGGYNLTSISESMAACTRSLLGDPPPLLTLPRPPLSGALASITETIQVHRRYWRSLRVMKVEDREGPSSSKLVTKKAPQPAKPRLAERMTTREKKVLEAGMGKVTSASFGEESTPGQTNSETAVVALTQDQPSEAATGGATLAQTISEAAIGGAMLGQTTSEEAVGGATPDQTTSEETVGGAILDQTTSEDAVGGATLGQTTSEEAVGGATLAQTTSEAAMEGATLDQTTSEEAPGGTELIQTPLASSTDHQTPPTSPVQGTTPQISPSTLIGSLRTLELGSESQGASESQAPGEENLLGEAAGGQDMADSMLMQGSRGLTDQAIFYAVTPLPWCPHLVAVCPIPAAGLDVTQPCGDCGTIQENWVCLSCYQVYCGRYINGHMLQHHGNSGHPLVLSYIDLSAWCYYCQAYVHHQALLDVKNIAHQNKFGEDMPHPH
Briefly: HDAC6 biochemical assay, AMC-labeled peptide substrate. The note with it: HDAC6; read-out: HDAC Isoform IC50 (nM) 6. The method in brief: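 Two-step fluorogenic read-out: enzyme deacetylates 50 μM RHKK(Ac)AMC for 1 h at 30° C in pH 8.0 Tris buffer with BSA and 1% DMSO, then developer cleavage gives signal at Ex 360/Em 460. Enzyme: 0.3 ng/ul recombinant full-length human HDAC6, GST-tagged, Sf9-expressed.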

As for `O=C(O)c1cnnc(N(Cc2sc(-c3noc(C(F)(F)F)n3)cc2F)c2cnccn2)c1` [Example FA, 6-[({3-fluoro-5-[5-(trifluoromethyl)-1,2,4-oxadiazol-3-yl]thiophen-2-yl}methyl)(pyrazin-2-yl)amino]pyridazine-4-carboxylic acid], the IC50 was not above 500 nM. Regarding `O=C(c1ccc(N(Cc2ccc(-c3noc(C(F)(F)F)n3)s2)c2cnccn2)nn1)N1C[C@@H]2C[C@H]1C[S@@+]2[O-]` [Example FR, (1S,2R,4S)-5-{6-[(Pyrazin-2-yl)({5-[5-(trifluoromethyl)-1,2,4-oxadiazol-3-yl]thiophen-2-yl}methyl)amino]pyridazine-3-carbonyl}-2-thia-5-azabicyclo[2.2.1]heptan-2-ium-2-olate], the IC50 was not above 500 nM. With `FC(F)(F)c1nc(-c2ccc(CN(c3cnccn3)c3ncccn3)s2)no1` [Example AS, N-(Pyrimidin-2-yl)-N-({5-[5-(trifluoromethyl)-1,2,4-oxadiazol-3-yl]thiophen-2-yl}methyl)pyrazin-2-amine], the IC50 was not above 1000 nM. `COC1(C(F)(F)F)CN(C(=O)c2cnnc(N(Cc3ccc(-c4noc(C(F)(F)F)n4)s3)c3cnccn3)c2)C1` [Example GL, 5-[3-Methoxy-3-(trifluoromethyl)azetidine-1-carbonyl]-N-(pyrazin-2-yl)-N-({5-[5-(trifluoromethyl)-1,2,4-oxadiazol-3-yl]thiophen-2-yl}methyl)pyridazin-3-amine]: the half-inhibitory concentration (IC50) is not above 500 nM.

For `CNC(=O)c1ccc(N(Cc2ccc(-c3noc(C(F)(F)F)n3)s2)c2cnccn2)nn1` [Example FC, N-Methyl-6-[(pyrazin-2-yl)({5-[5-(trifluoromethyl)-1,2,4-oxadiazol-3-yl]thiophen-2-yl}methyl)amino]pyridazine-3-carboxamide], the IC50 was not above 500 nM. On to `O=C(c1cnnc(N(Cc2ccc(-c3noc(C(F)(F)F)n3)s2)c2cnccn2)c1)N1CCCC1` [Example EA, N-(Pyrazin-2-yl)-5-(pyrrolidine-1-carbonyl)-N-({5-[5-(trifluoromethyl)-1,2,4-oxadiazol-3-yl]thiophen-2-yl}methyl)pyridazin-3-amine], for which the 50% inhibitory concentration (IC50) is not above 500 nM. Consider `O=C(c1ccc(N(Cc2ccc(-c3noc(C(F)(F)F)n3)s2)c2cnccn2)nn1)N1CC[S+]([O-])CC1` [Example FD, 4-{6-[(Pyrazin-2-yl)({5-[5-(trifluoromethyl)-1,2,4-oxadiazol-3-yl]thiophen-2-yl}methyl)amino]pyridazine-3-carbonyl}-1lambda4-thiomorpholin-1-one], for which the IC50 is not above 500 nM. In the case of `O=C(c1ccc(N(Cc2ccc(-c3noc(C(F)(F)F)n3)s2)c2cnccn2)nn1)N1CC(O)(C(F)(F)F)C1` [Example FK, 1-{6-[(Pyrazin-2-yl)({5-[5-(trifluoromethyl)-1,2,4-oxadiazol-3-yl]thiophen-2-yl}methyl)amino]pyridazine-3-carbonyl}-3-(trifluoromethyl)azetidin-3-ol], the IC50 is not above 500 nM. Take `O=C(c1ccc(N(Cc2ccc(-c3noc(C(F)(F)F)n3)s2)c2cnccn2)nn1)N1CCC12COC2` [Example FH, 6-{6-Oxa-1-azaspiro[3.3]heptane-1-carbonyl}-N-(pyrazin-2-yl)-N-({5-[5-(trifluoromethyl)-1,2,4-oxadiazol-3-yl]thiophen-2-yl}methyl)pyridazin-3-amine]: the IC50 is not above 500 nM. Turning to `COC1CN(C(=O)c2ccc(N(Cc3ccc(-c4noc(C(F)(F)F)n4)s3)c3cnccn3)nn2)C1` [Example DR, 6-(3-Methoxyazetidine-1-carbonyl)-N-(pyrazin-2-yl)-N-({5-[5-(trifluoromethyl)-1,2,4-oxadiazol-3-yl]thiophen-2-yl}methyl)pyridazin-3-amine], the 50% inhibitory concentration (IC50) was not above 500 nM.

As for `Cc1cncc(N(Cc2ccc(-c3noc(C(F)(F)F)n3)s2)c2cnccn2)n1` [Example BP, 6-Methyl-N-(pyrazin-2-yl)-N-({5-[5-(trifluoromethyl)-1,2,4-oxadiazol-3-yl]thiophen-2-yl}methyl)pyrazin-2-amine], the IC50 was not above 500 nM. The value for `O=C(O)c1cnnc(N(Cc2ccc(-c3noc(C(F)(F)F)n3)s2)c2cc(C(F)(F)F)cnn2)c1` [Example ES, 6-[({5-[5-(Trifluoromethyl)-1,2,4-oxadiazol-3-yl]thiophen-2-yl}methyl)[5-(trifluoromethyl)pyridazin-3-yl]amino]pyridazine-4-carboxylicacid] was not above 500 nM; that for `O=C(c1ccc(N(Cc2ccc(-c3noc(C(F)(F)F)n3)s2)c2cnccn2)nn1)N1CCC2(COC2)C1` [Example FJ, 6-{2-Oxa-6-azaspiro[3.4]octane-6-carbonyl}-N-(pyrazin-2-yl)-N-({5-[5-(trifluoromethyl)-1,2,4-oxadiazol-3-yl]thiophen-2-yl}methyl)pyridazin-3-amine] was not above 500 nM.

Take `O=C(c1cnnc(N(Cc2ccc(-c3noc(C(F)(F)F)n3)s2)c2cnccn2)c1)N1CC2CCC(C1)O2` [Example GA, 5-{8-Oxa-3-azabicyclo[3.2.1]octane-3-carbonyl}-N-(pyrazin-2-yl)-N-({5-[5-(trifluoromethyl)-1,2,4-oxadiazol-3-yl]thiophen-2-yl}methyl)pyridazin-3-amine]: the IC50 was not above 500 nM. Turning to `O=C(c1cnnc(N(Cc2ccc(-c3noc(C(F)(F)F)n3)s2)c2cnccn2)c1)N1C[C@H]2C[C@@H]1CO2` [Example FW, 5-[(1R,4R)-2-Oxa-5-azabicyclo[2.2.1]heptane-5-carbonyl]-N-(pyrazin-2-yl)-N-({5-[5-(trifluoromethyl)-1,2,4-oxadiazol-3-yl]thiophen-2-yl}methyl)pyridazin-3-amine], the 50% inhibitory concentration (IC50) is not above 500 nM. For `O=C(c1cnnc(N(Cc2ccc(-c3noc(C(F)(F)F)n3)s2)c2cnccn2)c1)N1CCC(F)(F)CC1` [Example FY, 5-(4,4-Difluoropiperidine-1-carbonyl)-N-(pyrazin-2-yl)-N-({5-[5-(trifluoromethyl)-1,2,4-oxadiazol-3-yl]thiophen-2-yl}methyl)pyridazin-3-amine], the IC50 was not above 500 nM. On to `CNC(=O)c1cnnc(N(Cc2ccc(-c3noc(C(F)(F)F)n3)s2)c2cnccn2)c1` [Example DY, N-Methyl-6-[(pyrazin-2-yl)({5-[5-(trifluoromethyl)-1,2,4-oxadiazol-3-yl]thiophen-2-yl}methyl)amino]pyridazine-4-carboxamide], for which the 50% inhibitory concentration (IC50) is not above 500 nM. Regarding `O=C(c1cnnc(N(Cc2ccc(-c3noc(C(F)(F)F)n3)s2)c2cnccn2)c1)N1CC(F)(F)C1` [Example FT, 5-(3,3-Difluoroazetidine-1-carbonyl)-N-(pyrazin-2-yl)-N-({5-[5-(trifluoromethyl)-1,2,4-oxadiazol-3-yl]thiophen-2-yl}methyl)pyridazin-3-amine], the IC50 is not above 500 nM. Consider `N#Cc1cnnc(N(Cc2ccc(-c3noc(C(F)(F)F)n3)s2)c2cnccn2)c1` [Example EE, 6-[(Pyrazin-2-yl)({5-[5-(trifluoromethyl)-1,2,4-oxadiazol-3-yl]thiophen-2-yl}methyl)amino]pyridazine-4-carbonitrile], for which the IC50 was not above 500 nM. For `COc1cnc(N(Cc2ccc(-c3noc(C(F)(F)F)n3)s2)c2cnccn2)cn1` [Example BI, 5-Methoxy-N-(pyrazin-2-yl)-N-({5-[5-(trifluoromethyl)-1,2,4-oxadiazol-3-yl]thiophen-2-yl}methyl)pyrazin-2-amine], the IC50 is not above 1000 nM. `Nc1cnnc(N(Cc2ccc(-c3noc(C(F)(F)F)n3)s2)c2cnccn2)c1` [Example FL, N3-(Pyrazin-2-yl)-N3-({5-[5-(trifluoromethyl)-1,2,4-oxadiazol-3-yl]thiophen-2-yl}methyl)pyridazine-3,5-diamine]: the half-maximal inhibitory concentration (IC50) is not above 500 nM. Then `COC1CN(C(=O)c2cnnc(N(Cc3ccc(-c4noc(C(F)(F)F)n4)s3)c3cnccn3)c2)C1` [Example DZ, 5-(3-Methoxyazetidine-1-carbonyl)-N-(pyrazin-2-yl)-N-({5-[5-(trifluoromethyl)-1,2,4-oxadiazol-3-yl]thiophen-2-yl}methyl)pyridazin-3-amine], with not above 500 nM.
